Holding throughout (conditions): stereoisomer not certain
Data set [1] in a line: RP, Phenomenex Synergi Polar-RP, 100 × 3 mm, 2.5 µm, 40 °C, 0.4 mL/min, estimated dead time 1.1 min; A: water + 1 mM ammonium fluoride; B: methanol + 1 mM ammonium fluoride; C: acetonitrile; D: 50% isopropanol + 50% acetone; gradient (min/%B/%C/%D) 0/5/0/0 2/5/0/0 8/95/0/0 12/80/15/0 19/25/70/0 19.5/0/25/70 21.5/0/25/70 22.5/0/25/0 23/5/0/0.
A short description of data set [2]: RP, Waters ACQUITY UPLC BEH C18, 100 × 1 mm, 1.7 µm, 50 °C, 0.3 mL/min, estimated dead time 0.17 min; A: water + 10 mM ammonium bicarbonate; B: 10% water + 90% methanol + 10 mM ammonium bicarbonate; gradient (min/%B) 0/0 15/100 21/100 22/0 30/0.
The nature of data set [3]: RP, Waters ACQUITY UPLC BEH C18, 100 × 1 mm, 1.7 µm, 50 °C, 0.3 mL/min, estimated dead time 0.17 min; A: water + 0.1% formic acid + 20 mM ammonium formate; B: methanol + 0.1% formic acid + 20 mM ammonium formate; gradient (min/%B) 0/0 15/100 21/100 22/0 30/0.

Molecules are shown by their SMILES.

Consider `O=S(=O)(O)c1ccc2ccc(S(=O)(=O)O)cc2c1` [27-Naphthalenedisulfonic acid], for which, in data set [1], the LC retention time is 1.65 min.

In the case of `Nc1ccc(S(=O)(=O)O)c(N)c1` [24-diaminobenzenesulfonic acid], the LC retention time in data set [1] was 1.48 min.

On to `COc1cc(O)c(C(=O)c2ccccc2)cc1S(=O)(=O)O` [Benzophenone-4], for which the LC retention time in data set [1] is 8.32 min.

With `O=C(Nc1ccc(Cl)cc1)Nc1ccc(Cl)c(Cl)c1` [Triclocarban], the LC retention time in data set [1] was 11.3 min.

Take `O=C(O)COc1ccc(Cl)cc1Cl` [24-Dichlorophenoxyacetic acid]: the LC retention time in data set [1] is 8.06 min.

Take `Cc1cc(Cl)ccc1OCC(=O)O` [MCPA]: the LC retention time in data set [1] was 8.16 min.

Regarding `Cc1ccc(-c2cc(C(F)(F)F)nn2-c2ccc(S(N)(=O)=O)cc2)cc1` [Celecoxib], the LC retention time in data set [1] is 11.1 min.

In the case of `Oc1cc(Cl)c(Cl)c(Cl)c1` [345-trichlorophenol], the LC retention time in data set [1] was 10.8 min.

Turning to `O=S(=O)(c1ccc(O)cc1)c1ccc(O)cc1` [Bisphenol S], in data set [1], the LC retention time is 9.36 min.

As for `OCC1OC(OC2(CCl)OC(CCl)C(O)C2O)C(O)C(O)C1Cl` (stereo unspecified) [Sucralose], the LC retention time in data set [1] is 8 min.

For the compound `CCC(=O)Nc1ccc(Cl)c(Cl)c1` [Propanil], the LC retention time in data set [1] was 10.6 min.

In the case of `O=C(NC(=O)c1c(F)cccc1F)Nc1ccc(Oc2ccc(C(F)(F)F)cc2Cl)cc1F` [Flufenoxuron], the LC retention time in data set [1] is 11.9 min.

As for `CS(=O)(=O)c1ccc(C(=O)C2C(=O)CCCC2=O)c(Cl)c1` [Sulcotrione], in data set [1], the LC retention time is 7.69 min.

In the case of `CCC1=C(C)CN(C(=O)NCCc2ccc(S(=O)(=O)NC(=O)NC3CCC(C)CC3)cc2)C1=O` (stereo unspecified) [Glimepiride], in data set [1], the LC retention time is 11.3 min.

As for `O=C(O)Cc1ccccc1Nc1c(Cl)cccc1Cl` [Diclofenac], in data set [1], the LC retention time is 10.1 min.

On to `CCCCC(=O)N(Cc1ccc(-c2ccccc2-c2nn[nH]n2)cc1)C(C(=O)O)C(C)C` (stereo unspecified) [Valsartan], for which the LC retention time in data set [1] is 9.29 min.

`CC(C)(Oc1ccc(CCNC(=O)c2ccc(Cl)cc2)cc1)C(=O)O` [Bezafibrate]: the LC retention time in data set [1] was 9.33 min.

Turning to `CCc1cccc(C)c1N(C(=O)C(=O)O)C(C)COC` (stereo unspecified) [Metolachlor OA], the LC retention time in data set [1] was 8.42 min.

For the compound `O=S(=O)(O)c1ccc2nc(-c3ccccc3)[nH]c2c1` [Phenylbenzimidazole sulfonic acid], the LC retention time in data set [1] was 7.44 min.

For `O=c1c(-c2ccc(O)cc2)coc2cc(O)ccc12` [Daidzein], in data set [1], the LC retention time is 9.89 min.

In the case of `O=[N+]([O-])c1ccc(O)c([N+](=O)[O-])c1` [24-Dinitrophenol], the LC retention time in data set [1] was 7.62 min.

`O=c1cc[nH]c(=S)[nH]1` [2-thiouracil]: the LC retention time in data set [1] was 2.53 min.

`CCCC1CC(C(=O)NC(C(C)O)C2OC(SC)C(O)C(O)C2O)N(C)C1` (stereo unspecified) [Lincomycin]: the LC retention time in data set [1] is 9.98 min.

With `N#Cc1nn(-c2c(Cl)cc(C(F)(F)F)cc2Cl)c(N)c1S(=O)C(F)(F)F` (stereo unspecified) [Fipronil], in data set [1], the LC retention time is 10.9 min.

`NS(=O)(=O)c1cc(C(=O)O)c(NCc2ccco2)cc1Cl` [Furosemide]: in data set [1], the LC retention time is 8.45 min.

As to `CCCN(CCC)c1c([N+](=O)[O-])cc(S(N)(=O)=O)cc1[N+](=O)[O-]` [Oryzalin], the LC retention time in data set [1] was 11.2 min.

As for `CC(C)c1c(C(=O)Nc2ccccc2)c(-c2ccccc2)c(-c2ccc(F)cc2)n1CCC(O)CC(O)CC(=O)O` (stereo unspecified) [Atorvastatin], the LC retention time in data set [1] was 10.4 min.

With `O=C1CN(N=Cc2ccc([N+](=O)[O-])o2)C(=O)N1` [Nitrofurantoin], the LC retention time in data set [1] is 8.69 min.

In the case of `CC(C(=O)O)c1cccc(C(=O)c2ccccc2)c1` (stereo unspecified) [Ketoprofen], in data set [1], the LC retention time was 9.75 min.

For the compound `COCCN(C(=O)CS(=O)(=O)O)c1c(C)cccc1C` [Dimethachlor ESA], the LC retention time in data set [1] is 7.88 min.

Turning to `CCOC(=O)C1=C(C)NC(C)=C(C(=O)OC)C1c1cccc([N+](=O)[O-])c1` (stereo unspecified) [Nitrendipin], the LC retention time in data set [1] is 11.2 min.

As to `O=c1[nH]c(=O)c2cn[nH]c2[nH]1` [Oxypurinol], in data set [1], the LC retention time is 2.44 min.

`Nc1nc2c(ncn2COCCO)c(=O)[nH]1` [Acyclovir]: the LC retention time in data set [1] was 3.17 min.

With `O=c1c(-c2ccc(O)cc2)coc2cc(O)cc(O)c12` [Genistein], the LC retention time in data set [1] is 10.3 min.

With `CC(=O)OC12COC1CC(O)C1(C)C(=O)C(O)C3=C(C)C(O)CC(O)(C(OC(=O)c4ccccc4)C21)C3(C)C` (stereo unspecified) [10-Deacetylbaccatin III], the LC retention time was 12 min in data set [2] and 11.7 min in data set [3].

Take `CCOC(=O)CCN(Cc1ccccc1)SN(C)C(=O)ON=C(C)SC` [Alanycarb]: the values for the LC retention time in data set [2] and in data set [3] were 15.8 min and 15.5 min, respectively.

As for `CCOC(=O)c1ccc(N)cc1` [Benzocain], the LC retention time in data set [2] is 10.8 min; in data set [3] it was 10.5 min.

On to `Cc1cc(C)nc(NC(=O)NS(=O)(=O)c2ccccc2C(=O)OC2COC2)n1` [Oxasulfuron], for which the results for the LC retention time in data set [2] and in data set [3] were 9.07 min and 11.3 min, respectively.

As for `Nc1nc(=O)n(C2CSC(CO)O2)cc1F` (stereo unspecified) [Emtricitabine], the LC retention time in data set [2] was 5.99 min; in data set [3] it was 5.75 min.

Consider `CN(C(=O)COc1nc2ccccc2s1)c1ccccc1` [Mefenacet], for which the LC retention time in data set [2] was 14.9 min; in data set [3], 14.6 min.

Take `CC1=CC(=O)CC(C)(C)C1` [Isophorone]: the LC retention time was 11.9 min in data set [2] and 11.7 min in data set [3].

As to `Cc1ccc(S(=O)(=O)O)c(C)c1` [m-Xylene-4-sulfonic acid], the LC retention time in data set [2] is 7.83 min; in data set [3] it was 7.92 min.

Regarding `Oc1cc(-c2ccc(Cl)cc2)ccc1Cl` [3-Hydroxy-4,4'-dichlorobiphenyl], the LC retention time was 16 min in data set [2] and 15.9 min in data set [3].

As to `CCC1OC(=O)C(C)C(OC2CC(C)(OC)C(O)C(C)O2)C(C)C(OC2OC(C)CC(N(C)C)C2O)C(C)(O)CC(C)CN(C)C(C)C(O)C1(C)O` (stereo unspecified) [Azithromycin], the results for the LC retention time in data set [2] and in data set [3] were 17.4 min and 11.2 min, respectively.

As for `CC(=O)NCC1CN(c2ccc(N3CCOCC3)c(F)c2)C(=O)O1` (stereo unspecified) [Linezolid], the LC retention time in data set [2] was 10 min; in data set [3], 9.9 min.

In the case of `Cc1ccc(OP(=O)(Oc2ccc(C)cc2)Oc2ccc(C)cc2)cc1` [Tricresylphosphate], the LC retention time in data set [2] was 17.7 min; in data set [3], 17.3 min.

Take `CCCC1OC2CC3C4CCC5=CC(=O)C=CC5(C)C4C(O)CC3(C)C2(C(=O)CO)O1` (stereo unspecified) [Budesonide]: the LC retention time in data set [2] is 15.1 min; in data set [3], 14.8 min.

For `CCCCOCCOCCO` [Diethylene glycol monobutyl ether], the LC retention time in data set [2] is 10.9 min; in data set [3], 10.8 min.

With `CN1COCN(Cc2cnc(Cl)s2)C1=N`, the values for the LC retention time in data set [2] and in data set [3] were 6.91 min and 6.25 min, respectively.

Turning to `CC(=O)c1cc2c(cc1C)C(C)(C)C(C)C2(C)C` (stereo unspecified) [Phantolide], the LC retention time in data set [2] is 17.9 min; in data set [3], 17.5 min.

(Values after the RepoRT retention time repository (doi:10.1021/acs.analchem.1c00972).)
